From ChEMBL document CHEMBL5241093, “Recent advances in the design and discovery of synthetic tyrosinase inhibitors” (Eur J Med Chem, 2021)
Blank lines part the entries; values can stand above or below the compound they belong to.

Key:
Tyrosinase [1] = molecular target: T1, Tyrosinase (Agaricus bisporus, UniProt O42713); assay: Inhibition of mushroom tyrosinase using L-DOPA as substrate incubated for 5 mins
T1 sequence (O42713 whole entry): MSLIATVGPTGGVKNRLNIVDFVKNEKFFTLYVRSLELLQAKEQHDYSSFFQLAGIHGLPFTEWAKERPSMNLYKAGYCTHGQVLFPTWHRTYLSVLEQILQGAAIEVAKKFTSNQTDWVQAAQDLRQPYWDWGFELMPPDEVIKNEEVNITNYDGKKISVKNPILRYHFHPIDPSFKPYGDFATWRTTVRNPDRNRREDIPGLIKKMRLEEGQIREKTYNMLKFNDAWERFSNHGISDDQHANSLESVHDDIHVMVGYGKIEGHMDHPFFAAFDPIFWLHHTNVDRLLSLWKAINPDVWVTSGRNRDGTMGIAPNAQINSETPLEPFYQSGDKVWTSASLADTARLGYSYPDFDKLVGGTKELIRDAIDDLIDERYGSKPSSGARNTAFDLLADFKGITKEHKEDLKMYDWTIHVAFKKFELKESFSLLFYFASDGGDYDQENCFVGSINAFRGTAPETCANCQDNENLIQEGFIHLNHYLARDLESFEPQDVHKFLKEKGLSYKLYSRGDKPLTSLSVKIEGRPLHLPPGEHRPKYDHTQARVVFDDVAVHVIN

Tyrosinase [2] = molecular target: T1, Tyrosinase; assay: Inhibition of mushroom tyrosinase using L-dopa as substrate assessed as inhibition constant incubated for 30 mins by spectrophotometric analysis
Tyrosinase [3] = molecular target: T1, Tyrosinase; assay: Inhibition of mushroom tyrosinase using L-dopa as substrate incubated for 30 mins by spectrophotometric analysis
Mushroom tyrosinase [4] = molecular target: T2, Mushroom tyrosinase (Agaricus bisporus, UniProt O42713+Q00024+C7FF04+C7FF05); assay: Inhibition of mushroom diphenolase
Mushroom tyrosinase [5] = molecular target: T2, Mushroom tyrosinase; assay: Inhibition of mushroom monophenolase
Tyrosinase [6] = molecular target: T1, Tyrosinase; assay: Inhibition of mushroom tyrosinase using L-DOPA as substrate incubated for 20 mins by microplate reader analysis
Tyrosinase [7] = molecular target: T1, Tyrosinase; assay: Inhibition of mushroom tyrosinase using L-DOPA as a substrate assessed as inhibition constant incubated for 5 mins by microplate reader analysis
Tyrosinase [8] = molecular target: T1, Tyrosinase; assay: Inhibition of mushroom tyrosinase using L-DOPA as substrate preincubated for 10 mins followed by substrate addition measured after 20 mins by microtitre plate analysis
Tyrosinase [9] = molecular target: T1, Tyrosinase; assay: Inhibition of mushroom tyrosinase using L-DOPA as substrate incubated for 10 mins
Tyrosinase [10] = molecular target: T1, Tyrosinase; assay: Inhibition of mushroom tyrosinase using L-DOPA as substrate incubated for 20 mins
Tyrosinase [11] = molecular target: T1, Tyrosinase; assay: Inhibition of mushroom tyrosinase using L-tyrosine as substrate assessed as […] activity incubated for 20 mins by microplate reader analysis
Tyrosinase [12] = molecular target: T1, Tyrosinase; assay: Inhibition of mushroom tyrosinase using L-DOPA as substrate assessed as monophenolase activity incubated for 20 mins by microplate reader analysis
[13] = Antioxidant activity assessed as DPPH radical scavenging activity incubated for 30 mins under dark condition; format: functional
Tyrosinase [14] = molecular target: T1, Tyrosinase; assay: Inhibition of mushroom tyrosinase using L-dopa as substrate incubated for 30 mins by microplate reader analysis
Tyrosinase [15] = molecular target: T1, Tyrosinase; assay: Inhibition of mushroom tyrosinase using L-dopa as substrate assessed as diphenolase activity incubated for 30 mins by spectrophotometric method
Tyrosinase [16] = molecular target: T1, Tyrosinase; assay: Inhibition of mushroom tyrosinase using L-dopa as substrate assessed as monophenolase activity incubated for 30 mins by spectrophotometric method
Tyrosinase [17] = molecular target: T1, Tyrosinase; assay: Inhibition of mushroom tyrosinase using L-DOPA as substrate preincubated for 10 mins followed by substrate addition measured after 20 mins by microtitre plate reader analysis
Tyrosinase [18] = molecular target: T1, Tyrosinase; assay: Inhibition of mushroom tyrosinase using L-DOPA as substrate preincubated with compound for 15 mins by microplate reader analysis
Tyrosinase [19] = molecular target: T1, Tyrosinase; assay: Inhibition of mushroom tyrosinase using L-DOPA as substrate assessed as inhibition constant preincubated with compound for 15 mins by microplate reader analysis
Tyrosinase [20] = molecular target: T3, Tyrosinase (Homo sapiens, UniProt P14679); assay: Inhibition of human his tagged tyrosinase expressed in HEK293 cells using L-DOPA as substrate incubated for 10 mins by microtitre plate reader analysis; format: cell-based
T3 sequence (P14679 whole entry): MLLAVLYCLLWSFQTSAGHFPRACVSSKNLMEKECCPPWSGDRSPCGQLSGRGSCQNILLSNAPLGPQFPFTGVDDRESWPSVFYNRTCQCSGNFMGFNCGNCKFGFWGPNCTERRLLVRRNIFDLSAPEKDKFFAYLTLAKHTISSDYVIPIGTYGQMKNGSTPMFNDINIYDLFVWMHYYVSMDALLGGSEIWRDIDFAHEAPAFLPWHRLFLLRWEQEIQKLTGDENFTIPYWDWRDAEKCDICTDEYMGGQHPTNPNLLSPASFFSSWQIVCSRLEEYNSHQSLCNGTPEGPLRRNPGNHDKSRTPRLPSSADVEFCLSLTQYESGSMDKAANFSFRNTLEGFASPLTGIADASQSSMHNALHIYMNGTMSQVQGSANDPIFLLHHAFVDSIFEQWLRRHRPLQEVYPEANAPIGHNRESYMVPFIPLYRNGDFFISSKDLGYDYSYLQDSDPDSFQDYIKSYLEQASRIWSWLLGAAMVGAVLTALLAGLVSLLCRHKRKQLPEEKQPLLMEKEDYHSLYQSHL

B16 = assay: Anti-melanoma activity against mouse B16 cells assessed as inhibition of tyrosinase activity incubated for 48 hrs by spectrophotometer analysis relative to control; format: functional
Tyrosinase [21] = molecular target: T1, Tyrosinase; assay: Inhibition of mushroom tyrosinase using L-tyrosine as substrate preincubated for 15 mins followed by substrate addition measured after 30 mins by plate reader analysis

SMILES: OC[C@H]1O[C@H](Oc2cc(O)cc(CCc3ccc(O)cc3O)c2)[C@H](O)[C@@H](O)[C@@H]1O
IC50 (Tyrosinase [1]): 2.63 µM

SMILES: O=C1/C(=C/c2ccc(O)cc2O)Cc2ccccc21
Ki (Tyrosinase [2]): 2400 nM | IC50 (Tyrosinase [3]): 1390 nM

SMILES: CCN(CC)c1ccc(Nc2nc(-c3ccc(O)cc3O)cs2)cc1
IC50 (Mushroom tyrosinase [4]): 10.3 µmol/L | IC50 (Mushroom tyrosinase [5]): 6.2 µmol/L

SMILES: Oc1ccc(/C=N\n2c(Cc3ccccc3F)n[nH]c2=S)cc1
IC50 (Tyrosinase [6]): 6.23 µM

SMILES: Cc1ccc(C(C)C)cc1NC(=O)COC(=O)/C=C/c1ccc(O)cc1O
IC50 (Tyrosinase [8]): 150 nM

SMILES: CCOc1cc(/C=N/NC(=O)c2ccc(O)c(OC)c2)ccc1O
IC50 (Tyrosinase [10]): 1580 nM

SMILES: Nn1c(S)nnc1N/N=C\c1ccccc1O
IC50 (Tyrosinase [6]): 1.52 µM

SMILES: CCOC(=O)C1=C(N)Oc2c(ccc3ccccc23)C1c1ccc(N(C)C)cc1 (stereo not given)
EC50 [13]: 0.94 mM/L

SMILES: COc1cc(CC2C(=O)Nc3ccccc32)ccc1O (stereo not given)
IC50 (Tyrosinase [15]): 59.7 µM | IC50 (Tyrosinase [16]): 63.4 µM

SMILES: O=C1OC(c2ccccc2Br)=NC(=S)C1c1nn[nH]n1 (stereo not given)
IC50 (Tyrosinase [17]): < 100 nM

SMILES: COc1cccc2c1c(C(=O)C(=O)Nc1cc[nH]n1)cn2Cc1ccc(F)cc1
IC50 (Tyrosinase [9]): 224000 nM

SMILES: O=P(O)(c1ccccc1)C(NCc1ccccc1)c1ccccn1 (stereo not given)
IC50 (Tyrosinase [18]): 310 µM | Ki (Tyrosinase [19]): 76 µM

SMILES: Nc1ccccc1C(=O)O [ANTHRANILIC ACID]
IC50 (Mushroom tyrosinase [4]): 4.72 µmol/L | IC50 (Mushroom tyrosinase [5]): 5.15 µmol/L

SMILES: OC[C@H]1O[C@@H](Oc2ccc(O)cc2)[C@H](O)[C@@H](O)[C@@H]1O [ARBUTIN]
inhibition (INH) (B16): 55.4%

SMILES: O=C(O)/C=C/c1ccc(O)cc1 [COUMARIC ACID]
IC50 (Tyrosinase [21]): 296 µM

Further lines, results first:

Ki (Tyrosinase [7]): 4 µM
SMILES: CC1(C)CC(=O)C2=C(C1)Oc1c(oc(CCl)cc1=O)C2c1ccc(F)cc1 (stereo not given)

IC50 (Tyrosinase [1]): 12.8 µM
SMILES: OC[C@H]1O[C@H](Oc2cc(CCc3ccc(O)cc3O)cc(O[C@H]3O[C@H](CO)[C@@H](O)[C@H](O)[C@H]3O)c2)[C@H](O)[C@@H](O)[C@@H]1O

IC50 (Tyrosinase [9]): 38 nM
SMILES: COc1cc(/C=C/C(=O)c2ccc(OC)c(OC)c2)ccc1O

IC50 (Tyrosinase [11]): 13 nM | IC50 (Tyrosinase [12]): 930 nM
SMILES: O=C(/C=C/c1ccc(O)cc1O)c1cccs1

IC50 (Tyrosinase [14]): 1800 nM
SMILES: O=C1N=C(Nc2nc3ccccc3s2)S/C1=C\c1ccc(O)cc1O

IC50 (Tyrosinase [17]): < 100 nM
SMILES: Cc1ccc(NC(=O)CCCN2CCN(C/C=C/c3ccccc3)CC2)c(C)c1

IC50 (Tyrosinase [17]): < 100 nM
SMILES: COc1ccccc1-n1c(SCC(=O)Nc2ccc(Br)cc2)nnc1-c1ccccc1

IC50 (Tyrosinase [9]): 22 nM
SMILES: COc1cc(/C=C/C(=O)c2cc(OC)c(OC)c(-c3cc(C(=O)/C=C/c4ccc(O)c(OC)c4)cc(OC)c3OC)c2)ccc1O

EC50 (Tyrosinase [20]): 245 µM
SMILES: Nc1nc(-c2ccc(O)cc2O)cs1
